Reference: ChEMBL document CHEMBL1141235, “Synthesis and preliminary evaluation of [3H]PSB-0413, a selective antagonist radioligand for platelet P2Y12 receptors” (Bioorg Med Chem Lett, 2005)

Target: P2Y purinoceptor 12 (Homo sapiens, UniProt Q9H244)
Experiment: Binding affinity to P2Y12 receptor expressed in human platelets from 0.047 to 50 nM

P2Y purinoceptor 12, sequence (Q9H244 whole entry): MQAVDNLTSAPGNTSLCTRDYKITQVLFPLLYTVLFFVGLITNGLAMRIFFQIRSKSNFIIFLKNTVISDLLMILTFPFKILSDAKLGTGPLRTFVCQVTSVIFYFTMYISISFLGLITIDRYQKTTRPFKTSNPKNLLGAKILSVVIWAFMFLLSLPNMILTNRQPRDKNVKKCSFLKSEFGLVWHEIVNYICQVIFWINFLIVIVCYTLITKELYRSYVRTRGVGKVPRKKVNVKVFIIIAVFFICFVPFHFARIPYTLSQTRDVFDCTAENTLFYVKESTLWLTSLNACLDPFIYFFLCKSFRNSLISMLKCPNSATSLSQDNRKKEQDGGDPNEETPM

Kd: 4.57 nM
SMILES: [3H]C([3H])([3H])C([3H])([3H])CSc1nc(N)c2ncn([C@@H]3O[C@H](COP(=O)(O)OP(=O)(O)C(Cl)(Cl)P(=O)(O)O)[C@@H](O)[C@H]3O)c2n1
